Assay results taken from patent US12577247B2 (BUGWORKS RESEARCH, INC., priority 2021, dated 2026).

Legend:
A2A receptor = target: T1, A2A receptor (Homo sapiens, UniProt P29274); assay: A2aR antagonism IC50, cAMP TR-FRET in HEK-293 cells, high concentration of adenosine (30 μM); type: cell-based; details: HEK-293 cells expressing A2A receptor; agonist adenosine 30 μM; 2% HSA; inhibition of cAMP; read-out: A2AR IC50 (nM) (@30 μM Adenosine);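 note: compounds added 10 min before adenosine, then 30 min stimulation at room temperature in buffer with 100 µM rolipram and 30 µM EHNA, signal read 1 h after detection reagents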
T1 construct: host or cells: HEK-293
T1 sequence (P29274 whole entry): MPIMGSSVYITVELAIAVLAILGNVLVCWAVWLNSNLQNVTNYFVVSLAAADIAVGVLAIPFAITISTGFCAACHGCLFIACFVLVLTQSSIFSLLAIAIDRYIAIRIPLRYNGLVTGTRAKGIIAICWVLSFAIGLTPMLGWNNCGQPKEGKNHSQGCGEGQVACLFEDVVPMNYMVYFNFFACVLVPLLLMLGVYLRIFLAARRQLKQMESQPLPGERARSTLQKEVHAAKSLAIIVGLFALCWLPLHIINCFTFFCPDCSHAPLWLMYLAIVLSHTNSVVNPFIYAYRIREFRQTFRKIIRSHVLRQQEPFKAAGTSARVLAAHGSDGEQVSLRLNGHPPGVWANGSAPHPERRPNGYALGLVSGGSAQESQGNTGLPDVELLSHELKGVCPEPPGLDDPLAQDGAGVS

A2B receptor = target: T2, A2B receptor (Homo sapiens, UniProt P29275); assay: A2bR antagonism IC50, cAMP TR-FRET in HEK-293 cells, high concentration of adenosine (30 μM); details: A2BR IC50 (nM) (@30 μM Adenosine), HEK-293 cells expressing A2B receptor; agonist adenosine 30 μM; 2% HSA; inhibition of cAMP;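 note: compounds preincubated 10 min with cells, then adenosine stimulation 30 min at room temperature in buffer with Rolipram 100 µM and EHNA 30 µM, TR-FRET read after 1 h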
T2 sequence (P29275 1-332): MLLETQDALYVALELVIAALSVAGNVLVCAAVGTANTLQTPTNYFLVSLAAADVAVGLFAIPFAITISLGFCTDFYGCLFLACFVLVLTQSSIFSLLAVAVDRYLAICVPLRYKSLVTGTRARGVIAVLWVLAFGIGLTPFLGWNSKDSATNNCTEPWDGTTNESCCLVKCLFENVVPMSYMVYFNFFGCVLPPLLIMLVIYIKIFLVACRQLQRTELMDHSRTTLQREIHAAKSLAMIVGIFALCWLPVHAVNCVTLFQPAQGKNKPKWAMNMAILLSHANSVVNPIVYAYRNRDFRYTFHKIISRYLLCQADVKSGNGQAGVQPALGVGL

| IC50 (A2A receptor) [nM] | IC50 (A2B receptor) [nM] | SMILES |
| --- | --- | --- |
| 1010 | 1410 | CCc1c(C)nn2c(N)c(C#N)c(NCCc3cccn(CCC[S+](C)[O-])c3=O)nc12 (single isomer, unassigned; (+)) [Example 154b, (+)-7-amino-3-ethyl-2-methyl-5-((2-(1-(3-(methylsulfinyl)propyl)-2-oxo-1,2-dihydropyridin-3-yl)ethyl)amino) pyrazolo[1,5-a]pyrimidine-6-carbonitrile] |
| 1420 | 466 | CCc1c(C)nn2c(N)c(C#N)c(NCCc3cccc(CO[C@@H]4CCOC4)n3)nc12 [Example 166, (R)-7-amino-3-ethyl-2-methyl-5-((2-(6-(((tetrahydrofuran-3-yl)oxy)methyl)pyridine-2-yl)ethyl)amino) pyrazolo[1,5-a]pyrimidine-6-carbonitrile] |
| 392 | 1070 | CCc1c(C)nn2c(N)c(C#N)c(NCCc3cccn(CCO)c3=O)nc12 [Example 108, 7-amino-3-ethyl-5-((2-(1-(2-hydroxyethyl)-2-oxo-1,2-dihydropyridin-3-yl)ethyl)amino)-2-methylpyrazolo[1,5-a]pyrimidine-6-carbonitrile] |
| 165 | 482 | CCc1c(C)nn2c(N)c(C#N)c(NCCc3cccc(CCO)n3)nc12 [Example 139, 7-amino-3-ethyl-5-((2-(6-(2-hydroxyethyl)pyridine-2-yl)ethyl)amino)-2-methylpyrazolo[1,5-a]pyrimidine-6-carbonitrile] |
| 666 | 2380 | CCc1c(C)nn2c(N)c(C#N)c(NCCc3ccn(CCCO)n3)nc12 [Example 111, 7-amino-3-ethyl-5-((2-(1-(3-hydroxypropyl)-1H-pyrazol-3-yl)ethyl)amino)-2-methylpyrazolo[1,5-a]pyrimidine-6-carbonitrile] |
| 102 | 4250 | Cc1nn2c(N)c(C#N)c(NCCc3ccn(CC4CC(O)C4)n3)nc2c1Cl (single isomer, unassigned; (-)) [Example 84, (−)-7-amino-3-chloro-5-((2-(1-((3-hydroxycyclobutyl)methyl)-1H-pyrazol-3-yl)ethyl)amino)-2-methylpyrazolo[1,5-a]pyrimidine-6-carbonitrile] |
| 125 | > 15000 | CCn1cccc(CCNc2nc3c(Cl)c(C)nn3c(N)c2C#N)c1=O [Example 70, 7-amino-3-chloro-5-((2-(1-ethyl-2-oxo-1,2-dihydropyridin-3-yl)ethyl)amino)-2-methylpyrazolo[1,5-a]pyrimidine-6-carbonitrile] |
| 100 | > 15000 | Cc1nn2c(N)c(C#N)c(NCCc3ccn(C4(CNCCO)CC4)n3)nc2c1Cl [Example 98, 7-amino-3-chloro-5-((2-(1-(1-(((2-hydroxyethyl)amino)methyl)cyclopropyl)-1H-pyrazol-3-yl)ethyl)amino)-2-methylpyrazolo[1,5-a]pyrimidine-6-carbonitrile] |
| 237 | 5660 | Cc1nn2c(N)c(C#N)c(NCCc3cccn(CCCN)c3=O)nc2c1Cl [Example 129, 7-amino-5-((2-(1-(3-aminopropyl)-2-oxo-1,2-dihydropyridin-3-yl)ethyl)amino)-3-chloro-2-methylpyrazolo[1,5-a]pyrimidine-6-carbonitrile] |
| 255 | 2470 | CCc1c(C)nn2c(N)c(C#N)c(NCCc3ccn(C4(CN)CC4)n3)nc12 [Example 146, 7-amino-5-((2-(1-(1-(aminomethyl)cyclopropyl)-1H-pyrazol-3-yl)ethyl)amino)-3-ethyl-2-methylpyrazolo[1,5-a]pyrimidine-6-carbonitrile] |
| 161 | 2170 | Cc1nn2c(N)c(C#N)c(NCCc3ccn(C4COCC4CO)n3)nc2c1Cl (stereo not shown) [Example 127, 7-amino-3-chloro-5-((2-(1-(4-(hydroxymethyl)tetrahydrofuran-3-yl)-1H-pyrazol-3-yl)ethyl)amino)-2-methylpyrazolo[1,5-a] pyrimidine-6-carbonitrile] |
| 66 | 2370 | Cc1nn2c(N)c(C#N)c(NCCc3cc(C)n(C4(CO)CC4)n3)nc2c1Br [Example 89, 7-amino-3-bromo-5-((2-(1-(1-(hydroxymethyl)cyclopropyl)-5-methyl-1H-pyrazol-3-yl)ethyl)amino)-2-methylpyrazolo[1,5-a]pyrimidine-6-carbonitrile] |
| 402 | 723 | CCc1c(C)nn2c(N)c(C#N)c(NCCc3ccn(C4CCC4CN)n3)nc12 (stereo not shown) [Example 109, 7-amino-5-((2-(1-(2-(aminomethyl)cyclobutyl)-1H-pyrazol-3-yl)ethyl)amino)-3-ethyl-2-methylpyrazolo[1,5-a]pyrimidine-6-carbonitrile] |
| 161 | 9380 | Cc1nn2c(N)c(C#N)c(NCCc3ccn(C4(CN)CC4)n3)nc2c1Cl [Example 68, 7-amino-5-((2-(1-(1-(aminomethyl)cyclopropyl)-1H-pyrazol-3-yl)ethyl)amino)-3-chloro-2-methylpyrazolo[1,5-a]pyrimidine-6-carbonitrile] |
| 679 | 4750 | Cc1nn2c(N)c(C#N)c(NCCc3cccn(CCCN)c3=O)nc2c1C [Example 141, 7-amino-5-((2-(1-(3-aminopropyl)-2-oxo-1,2-dihydropyridin-3-yl)ethyl)amino)-2,3-dimethylpyrazolo[1,5-a]pyrimidine-6-carbonitrile] |
| 75 | 4390 | CCc1c(C)nn2c(N)c(C#N)c(NCCc3ccn(C4(CNCCO)CC4)n3)nc12 [Example 106, 7-amino-3-ethyl-5-((2-(1-(1-(((2-hydroxyethyl)amino)methyl)cyclopropyl)-1H-pyrazol-3-yl)ethyl)amino)-2-methylpyrazolo[1,5-a]pyrimidine-6-carbonitrile] |
| 50 | 1230 | Cc1nn2c(N)c(C#N)c(NCCc3cccn(CCO)c3=O)nc2c1Cl [Example 93, 7-amino-3-chloro-5-((2-(1-(2-hydroxyethyl)-2-oxo-1,2-dihydropyridin-3-yl)ethyl)amino)-2-methylpyrazolo[1,5-a]pyrimidine-6-carbonitrile] |
| 2100 | > 15000 | Cc1nn2c(N)c(C#N)c(NCCc3ccn(C4(CO)CC4)n3)nc2c1C1CC1 [Example 101, 7-amino-3-cyclopropyl-5-((2-(1-(1-(hydroxymethyl)cyclopropyl)-1H-pyrazol-3-yl)ethyl)amino)-2-methylpyrazolo[1,5-a]pyrimidine-6-carbonitrile] |
| 451 | 1430 | CCc1c(C)nn2c(N)c(C#N)c(NCCc3cccc(CNCCO)n3)nc12 [Example 97, 7-amino-3-ethyl-5-((2-(6-(((2-hydroxyethyl)amino)methyl)pyridine-2-yl)ethyl)amino)-2-methylpyrazolo[1,5-a]pyrimidine-6-carbonitrile] |
| 475 | 2510 | CCc1c(C)nn2c(N)c(C#N)c(NCCc3ccn(C4CCC4CNCC(N)=O)n3)nc12 (stereo not shown) [Example 134, 2-(((2-(3-(2-((7-amino-6-cyano-3-ethyl-2-methylpyrazolo[1,5-a]pyrimidin-5-yl)amino)ethyl)-1H-pyrazol-1-yl)cyclobutyl)methyl)amino) acetamide] |
| 820 | > 15000 | Cc1nn2c(N)c(C#N)c(NCCc3ccn(C4(CO)CC4)n3)nc2c1CC1CCC1 [Example 137, 7-amino-3-(cyclobutylmethyl)-5-((2-(1-(1-(hydroxymethyl)cyclopropyl)-1H-pyrazol-3-yl)ethyl)amino)-2-methylpyrazolo[1,5-a]pyrimidine-6-carbonitrile] |
| 341 | 1250 | CCCc1c(C)nn2c(N)c(C#N)c(NCCc3ccn(C4COCC4CO)n3)nc12 (single isomer, unassigned; (-)) [Example 160b, (−) 7-amino-5-((2-(1-(4-(hydroxymethyl)tetrahydrofuran-3-yl)-1H-pyrazol-3-yl)ethyl)amino)-2-methyl-3-propylpyrazolo[1,5-a]pyrimidine-6-carbonitrile] |
| 126 | 2220 | CCc1c(C)nn2c(N)c(C#N)c(NCCc3ccn(C4(CCO)CC4)n3)nc12 [Example 124, 7-amino-3-ethyl-5-((2-(1-(1-(2-hydroxyethyl)cyclopropyl)-1H-pyrazol-3-yl)ethyl)amino)-2-methylpyrazolo[1,5-a] pyrimidine-6-carbonitrile] |
| 79 | 5640 | COCCn1cccc(CCNc2nc3c(Cl)c(C)nn3c(N)c2C#N)c1=O [Example 92, 7-amino-3-chloro-5-((2-(1-(2-methoxyethyl)-2-oxo-1,2-dihydropyridin-3-yl)ethyl)amino)-2-methylpyrazolo[1,5-a]pyrimidine-6-carbonitrile] |
| 200 | 798 | CCc1c(C)nn2c(N)c(C#N)c(NCCc3ccn(C4CCC4CO)n3)nc12 (single isomer, unassigned; (+)) [Example 78, (+)-7-amino-3-ethyl-5-((2-(1-(2-(hydroxymethyl)cyclobutyl)-1H-pyrazol-3-yl)ethyl)amino)-2-methylpyrazolo[1,5-a]pyrimidine-6-carbonitrile] |
| 1310 | 2220 | CCc1c(C)nn2c(N)c(C#N)c(NCCc3cccc(C(O)C(F)(F)F)n3)nc12 (stereo not shown) [Example 135, 7-amino-3-ethyl-2-methyl-5-((2-(6-(2,2,2-trifluoro-1-hydroxyethyl)pyridine-2-yl)ethyl)amino) pyrazolo[1,5-a]pyrimidine-6 carbonitrile] |
